Where two headings read alike, the source gives them in different places.
B1: TCN2-Cbl: complex of transcobalamin 2 (TCN2) with cobalamin (vitamin B12) (protein, UniProt P20062 19-427, looked up)
Transcobalamin-2: EMCEIPEMDSHLVEKLGQHLLPWMDRLSLEHLNPSIYVGLRLSSLQAGTKEDLYLHSLKLGYQQCLLGSAFSEDDGDCQGKPSMGQLALYLLALRANCEFVRGHKGDRLVSQLKWFLEDEKRAIGHDHKGHPHTSYYQYGLGILALCLHQKRVHDSVVDKLLYAVEPFHQGHHSVDTAAMAGLAFTCLKRSNFNPGRRQRITMAIRTVREEILKAQTPEGHFGNVYSTPLALQFLMTSPMRGAELGTACLKARVALLASLQDGAFQNALMISQLLPVLNHKTYIDLIFPDCLAPRVMLEPAAETIPQTQEIISVTLQVLSLLPPYRQSISVLAGSTVEDVLKKAHELGGFTYETQASLSGPYLTSVMGKAAGEREFWQLLRDPNTPLLQGIADYRPKDGETIELRLVSW
modifications: complexed with cobalamin
B2: TCN1: plasma glycoprotein chaperone of cobalamin, sialylated and desialylated forms (protein, UniProt P20061 24-433, looked up)
Transcobalamin-1: EICEVSEENYIRLKPLLNTMIQSNYNRGTSAVNVVLSLKLVGIQIQTLMQKMIQQIKYNVKSRLSDVSSGELALIILALGVCRNAEENLIYDYHLIDKLENKFQAEIENMEAHNGTPLTNYYQLSLDVLALCLFNGNYSTAEVVNHFTPENKNYYFGSQFSVDTGAMAVLALTCVKKSLINGQIKADEGSLKNISIYTKSLVEKILSEKKENGLIGNTFSTGEAMQALFVSSDYYNENDWNCQQTLNTVLTEISQGAFSNPNAAAQVLPALMGKTFLDINKDSSCVSASGNFNISADEPITVTPPDSQSYISVNYSVRINETYFTNVTVLNGSVFLSVMEKAQKMNDTIFGFTMEERSWGPYITCIQGLCANNNDRTYWELLSGGEPLSQGAGSYVVRNGENLEVRWSKY

Tests used:
[1] = system: MDA-MB-4353; assay: lentiviral shRNA knockdown of CD320 and LRP2, cell growth observation; type: cell-based; design: key: +++: cells unaffected compared to shSCR (control); ++: cells modestly affected compared to shSCR (control); +: cells significantly affected compared to shSCR (control); 0: vast majority of cells killed compared to shSCR (control); settings: MDA-MB-4353, melanoma cells
From the text: (§1) Mechanistic investigations into the selectivity of porphyrin uptake by cancer cells led to several nonobvious compounds and methods of using the compound(s). It was discovered that the knockdown of the expression of either CD320 gene or LRP2 gene or the simultaneous knockdown of the expression of CD320 gene and LRP2 gene caused cell death or inhibition of cell growth in a panel of lung cancer cell lines, compared to normal fibroblasts. The experimental outline is illustrated in FIG. 1. In these experiments, cells were plated on day 0. The next day (day 1), virus particles encoding short hairpin RNAs (shRNAs) directed to the CD320 gene and the LRP2 gene or an irrelevant shRNA control were added to the cell culture together with protamine sulfate, a reagent that facilitates cell entry of the virus particles.
(§2) FIG. 1 illustrates an experimental design for knocking down CD320 and LRP2 in a cell. Cells were plated on day 0. The next day (day 1), virus particles encoding short hairpin RNAs (shRNAs) directed at the CD320 and LRP2 mRNA or a non-targeting shRNA control were added to the cell culture together with protamine sulfate, a reagent that facilitates cell entry of the virus particles. […] Each shRNA coding sequence was also combined with a unique drug resistance gene, which would allow for selecting those cells that had taken up the shRNA; cells that had not taken up the shRNA would not survive. On day 2, drug selection was started. On day 3, the cells were harvested and plated in a new dish. Only the cells with a drug resistance gene, i.e., those cells that had taken up shRNA virus particles would survive this re-plating procedure. From day 4 on, each culture was closely observed for cell growth. Cells infected with the non-targeting negative control shRNA continued growing—data not shown.
(§3) The Each vector that carried a shRNA coding sequence also contained a unique drug resistance gene which would allow for selecting those cells that had taken up the shRNA as those cells that had not taken up the shRNA having the unique drug resistance gene would not survive. On day 2, drug selection was started. On day 3, the cells were harvested and plated in a new dish. Only the cells with a drug resistance gene, i.e., those cells that had taken up shRNA virus particles would survive this re-plating procedure. From day 4 on, each culture was closely observed for cell growth. The cells that were infected with the irrelevant control shRNA kept on growing as expected (since the shRNA was essentially a non-functional shRNA)—data not shown.
(§4) Additional cancer cell lines were also treated with the compounds described herein to determine whether cancer cell lines were more susceptible to growth inhibition and toxicity as compared to non-cancer cells of the same origin. Cell lines from skin, prostate, and brain cancers were screened similarly to the experimental outline in FIG. 1. Table 3 summarizes the effects of simultaneous knockdown of CD320 and LRP2 in cancer and normal cells.

[2] = system: HCC15; assay: as above; type: cell-based; design: key: +++: cells unaffected compared to shSCR (control); ++: cells modestly affected compared to shSCR (control); +: cells significantly affected compared to shSCR (control); 0: vast majority of cells killed compared to shSCR (control); settings: HCC15, lung cells
From the text: as §1, §2, §3, §4

[3] = system: DU-145; assay: as above; type: cell-based; design: key: +++: cells unaffected compared to shSCR (control); ++: cells modestly affected compared to shSCR (control); +: cells significantly affected compared to shSCR (control); 0: vast majority of cells killed compared to shSCR (control); settings: DU-145, prostate cells
From the text: as §1, §2, §3, §4

[4] = system: H358; assay: as above; type: cell-based; design: key: +++: cells unaffected compared to shSCR (control); ++: cells modestly affected compared to shSCR (control); +: cells significantly affected compared to shSCR (control); 0: vast majority of cells killed compared to shSCR (control); settings: H358, lung cells
From the text: as §1, §2, §3, §4

[5] = system: H157; assay: as above; type: cell-based; design: key: +++: cells unaffected compared to shSCR (control); ++: cells modestly affected compared to shSCR (control); +: cells significantly affected compared to shSCR (control); 0: vast majority of cells killed compared to shSCR (control); settings: H157, lung cells
From the text: as §1, §2, §3, §4

[6] = system: LncAP; assay: as above; type: cell-based; design: key: +++: cells unaffected compared to shSCR (control); ++: cells modestly affected compared to shSCR (control); +: cells significantly affected compared to shSCR (control); 0: vast majority of cells killed compared to shSCR (control); settings: prostate cells
From the text: as §1, §2, §3, §4

[7] = system: A172; assay: as above; type: cell-based; design: key: +++: cells unaffected compared to shSCR (control); ++: cells modestly affected compared to shSCR (control); +: cells significantly affected compared to shSCR (control); 0: vast majority of cells killed compared to shSCR (control); settings: A172, glioblastoma
From the text: as §1, §2, §3, §4

[8] = system: H1993; assay: as above; type: cell-based; design: key: +++: cells unaffected compared to shSCR (control); ++: cells modestly affected compared to shSCR (control); +: cells significantly affected compared to shSCR (control); 0: vast majority of cells killed compared to shSCR (control); settings: H1993, lung cells
From the text: as §1, §2, §3, §4

[9] = system: T98G; assay: as above; type: cell-based; design: key: +++: cells unaffected compared to shSCR (control); ++: cells modestly affected compared to shSCR (control); +: cells significantly affected compared to shSCR (control); 0: vast majority of cells killed compared to shSCR (control); settings: glioblastoma
From the text: as §1, §2, §3, §4

[10] = system: U343; assay: as above; type: cell-based; design: key: +++: cells unaffected compared to shSCR (control); ++: cells modestly affected compared to shSCR (control); +: cells significantly affected compared to shSCR (control); 0: vast majority of cells killed compared to shSCR (control); settings: U343, glioblastoma
From the text: as §1, §2, §3, §4

[11] = system: PC3; assay: as above; type: cell-based; design: key: +++: cells unaffected compared to shSCR (control); ++: cells modestly affected compared to shSCR (control); +: cells significantly affected compared to shSCR (control); 0: vast majority of cells killed compared to shSCR (control); settings: PC3, prostate cells
From the text: as §1, §2, §3, §4

[12] = system: GM00701; assay: as above; type: cell-based; design: key: +++: cells unaffected compared to shSCR (control); ++: cells modestly affected compared to shSCR (control); +: cells significantly affected compared to shSCR (control); 0: vast majority of cells killed compared to shSCR (control); settings: GM00701, normal cells
From the text: as §1, §2, §3, §4

[13] = system: U251MG; assay: as above; type: cell-based; design: key: +++: cells unaffected compared to shSCR (control); ++: cells modestly affected compared to shSCR (control); +: cells significantly affected compared to shSCR (control); 0: vast majority of cells killed compared to shSCR (control); settings: glioblastoma
From the text: as §1, §2, §3, §4

[14] = system: GM05659 fibroblasts; assay: as above; type: cell-based; design: key: +++: cells unaffected compared to shSCR (control); ++: cells modestly affected compared to shSCR (control); +: cells significantly affected compared to shSCR (control); 0: vast majority of cells killed compared to shSCR (control); settings: GM05659, normal cells
From the text: as §1, §2
FIGS. 2 A-C illustrates sensitivity of cancer cell lines to knockdown of CD320 and LRP2. […] The fields of cells in FIG. 2A were counted and quantified and illustrated in FIG. 2B. […]

[15] = cited from earlier work

Row | Molecule | cells affected compared to shSCR (control) [1] | cells affected compared to shSCR (control) [2] | cells affected compared to shSCR (control) [3] | cells affected compared to shSCR (control) [4] | cells affected compared to shSCR (control) [5] | cells affected compared to shSCR (control) [6] | cells affected compared to shSCR (control) [7] | cells affected compared to shSCR (control) [8] | cells affected compared to shSCR (control) [9] | cells affected compared to shSCR (control) [10] | cells affected compared to shSCR (control) [11] | cells affected compared to shSCR (control) [12] | cells affected compared to shSCR (control) [13] | cells affected compared to shSCR (control) [14] | plasma half-life ([15]; in vivo) | plasma half-life ([15]; desialylated, less abundant form) | plasma half-life ([15]; sialylated, most abundant form)
1 | shSCR: non-targeting control shRNA in lentiviral vector; SEQ ID NO. 941/942 [reference compound] | +++ | +++ | +++ | +++ | +++ | +++ | +++ | +++ | +++ | +++ | +++ | +++ | +++ | +++ | – | – | –
2 | shLRP2: lentiviral shRNA targeting LRP2 (NM_004525.2), location 2800-2820; SEQ ID NO. 945/946 (sense CCTGTAATAAACACTACTCTT; antisense AAGAGTAGTGTTTATTACAGG) [lentiviral shRNA targeting LRP2 (NM_004525.2), location 2800-2820; 945/946] | + | + | + | ++ | ++ | ++ | + | ++ | ++ | ++ | ++ | +++ | ++ | +++ | – | – | –
3 | B1 | – | – | – | – | – | – | – | – | – | – | – | – | – | – | 1 to 15 h | – | –
4 | B2 | – | – | – | – | – | – | – | – | – | – | – | – | – | – | – | a few minutes | about 10 days

Source: US12305171B2, “Compositions and methods for treating cancer” (bioAffinity Technologies, Inc., priority 2018, dated 2025)
